According to patent publication US9517993B2, “Antagonists of the toll-like receptor 1/2 complex” (THE REGENTS OF THE UNIVERSITY OF COLORADO, a body corporate, priority 2012, dated 2016):
Entries after “also recorded” stand apart in the source; their conditions may differ.

How the values were obtained:
TLR1/2 = biological target: T1, TLR1/2 (Mus musculus, UniProt Q9EPQ1+Q9QUN7); assay: In vitro TLR1/2 inhibition assay (nitric oxide, Pam3CSK4-activated RAW 264.7 macrophages); type: cell-based; conditions: for TLR1/2 inhibitory activity (in words, SAR and specificity): RAW 264.7 NO assay, Pam3CSK4; for IC50: RAW 264.7 cells, Pam3CSK4 200 ng/mL, nitric oxide readout, read-out: IC50, inhibition of Pam3CSK4-induced TLR1/2 activation (NO assay)
T1 construct: production of NO in RAW 264.7 macrophage cells; endogenous in cells; host or cells: RAW 264.7
Procedure: To identify novel TLR1/2 complex inhibitors, a cell-based assay was employed to screen the NCI-2 diversity small-molecule library. This 1,363 compound library was chosen from the larger NCI library, which has more than 140,000 compounds, on the basis of availability, purity, and other pharmacological features, such as relative rigidity, number of rotatable bonds and chiral centers, the absence of obvious leaving groups and weakly bounded heteroatoms, etc. Screening was performed in a 96-well plate format using a previously established high-throughput nitric oxide (NO) assay. See e.g. Cheng et al., Small molecule inhibitors of the TLR3/dsRNA complex, J. Am. Chem. Soc. (2011), 133:3764-67, which is herein incorporated by reference in its entirety. Briefly, synthetic triacylated lipoprotein Pam3CSK4 was employed to selectively activate TLR1/2 signaling, resulting in the expression of inducible nitric oxide synthase (iNOS) and the production of NO in RAW 264.7 macrophage cells. NO levels were monitored as an indicator of Pam3CSK4-induced TLR1/2 activation to evaluate the compound's inhibitory activity.
(§1) RAW 264.7 (Mouse leukaemic monocyte macrophage cell line) cells were grown in RPMI 1640 medium, supplemented with 10% FBS, penicillin (100 U/mL) and streptomycin ([…]). RAW cells were then planted in 96-well plates at 80,000 cells per well and grown for 24 h in the media descried previously at 37° C. in a 5% CO2 humidified incubator. After 24 h, non-adherent cells and media were removed and replaced with fresh unsupplemented RPMI 1640 medium. The adherent macrophages were treated with Pam3CSK4 (CAS No. 112208-00-1; a synthetic triacylated lipopeptide (LP) that mimics the acylated amino terminus of bacterial LPs) (200 ng/mL) (Invivogen, USA), an agonist of TLR1/2, and then added different concentrates of potential inhibitor. Two rows were only treated with Pam3CSK4 as control. Plates were then incubated for an additional 24 h. Following incubation 100 μL of media was removed and added to flat black 96-well microfluor plates (Thermo Scientific, MA, USA). To each well, 10 μL of 2,3-diaminonaphthalene (0.05 mg/mL in 0.62 M aqueous HCl solution) was added and incubated for 15 min in the dark. The reaction was quenched by addition of 5 μL of a 3 M aqueous NaOH solution and the plate was read on Beckman Coulter DTX880 reader (Beckman Coulter, Calif., USA) with excitation at 365 nm and emission at 450 nm. The nitrite (a stable metabolite of nitric oxide) concentration was determined from a nitrite standard curve. The inhibition rate (%) of NO release was determined using the following formula: Inhibition (%)=[Pam3CSK4(OD450) […]]/[Pam3CSK4 (OD450)−Control (OD450)]×100. The IC50 values for both inhibition and cytotoxicity were determined graphically using software Origin v7.5.

TLR2/6 = biological target: T2, TLR2/6 (Mus musculus, UniProt Q9EPW9+Q9QUN7); assay: RAW 264.7 nitric oxide TLR selectivity assay (FSL-1); type: cell-based; conditions: 10 ng/mL FSL-1
T2 construct: RAW 264.7 Cells Nitric Oxide TLR Selectivity Assay; endogenous in cells; host or cells: RAW 264.7
Procedure: as §1
This assay was run in a similar manor as the “In Vitro TLR1/2 Inhibition Assay”. High molecule weight Poly (I:C), LPS (lipopolysaccharide), FSL-1 (Synthetic diacylated lipoprotein—TLR2/TLR6 ligand commercially available from Invivogen, USA), and R848 ([…]) were used to selectively activate TLR3, TLR4, TLR2/6 and TLR7 in place of Pam3CSK4, respectively.

TLR3 = biological target: T3, TLR3 (Mus musculus, UniProt Q99MB1); assay: RAW 264.7 nitric oxide TLR selectivity assay (Poly (I:C)); type: cell-based; conditions: 15 μg/mL Poly (I:C)
T3 construct: RAW 264.7 Cells Nitric Oxide TLR Selectivity Assay; endogenous in cells; host or cells: RAW 264.7
T3 sequence (Q99MB1 26-905): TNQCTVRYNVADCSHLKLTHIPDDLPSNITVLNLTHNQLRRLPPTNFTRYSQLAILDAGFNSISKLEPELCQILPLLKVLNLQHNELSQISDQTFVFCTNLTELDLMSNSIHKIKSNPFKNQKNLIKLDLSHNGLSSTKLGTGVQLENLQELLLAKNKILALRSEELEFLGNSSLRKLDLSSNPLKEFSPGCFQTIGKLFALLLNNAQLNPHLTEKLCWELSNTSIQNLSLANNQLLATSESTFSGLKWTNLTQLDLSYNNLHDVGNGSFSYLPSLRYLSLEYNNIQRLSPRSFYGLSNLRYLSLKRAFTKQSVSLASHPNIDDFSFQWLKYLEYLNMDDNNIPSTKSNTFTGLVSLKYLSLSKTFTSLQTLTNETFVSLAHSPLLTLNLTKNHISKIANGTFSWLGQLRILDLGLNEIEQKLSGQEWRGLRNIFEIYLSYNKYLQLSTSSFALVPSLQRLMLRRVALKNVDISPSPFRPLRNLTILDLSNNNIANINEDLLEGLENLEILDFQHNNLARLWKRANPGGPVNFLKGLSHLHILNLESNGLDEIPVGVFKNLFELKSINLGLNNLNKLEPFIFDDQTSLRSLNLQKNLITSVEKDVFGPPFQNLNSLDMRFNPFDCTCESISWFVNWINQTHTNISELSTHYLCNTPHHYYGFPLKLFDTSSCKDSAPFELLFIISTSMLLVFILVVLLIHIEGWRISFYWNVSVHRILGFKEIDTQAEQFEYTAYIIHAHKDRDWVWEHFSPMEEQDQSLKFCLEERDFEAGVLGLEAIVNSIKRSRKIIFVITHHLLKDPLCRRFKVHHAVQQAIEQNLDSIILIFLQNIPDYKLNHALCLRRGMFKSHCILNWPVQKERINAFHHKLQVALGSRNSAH
Procedure: as §1, with “Plates were then incubated for an additional 24 h. Following incubation 100 μL of media was removed and added to flat black 96-well microfluor plates (Thermo Scientific, MA, USA). To each well, 10 μL of 2,3-diaminonaphthalene (0.05 mg/mL in 0.62 M aqueous HCl solution) was added and incubated for 15 min in the dark.” left out, “v7.5. […]” for “v7.5.”

[1] = test system: isolated microglial cells; assay: IL-1β inhibition in isolated microglial cells incubated with Pam3CSK4; type: cell-based; conditions: Pam3CSK4 and compound for 2 hours, N=4, listed as CU-CPT22
Procedure: In vitro testing was conducted using primary cells (isolated microglial cells) incubated with Pam3CSK4 and CU-CPT22 for 2 hours.

pro-inflammatory mRNA = assay: In vivo ICM co-administration with Pam3CSK4, hippocampal mRNA by real time RT-PCR; conditions: 5 ng or 50 ng ICM with Pam3CSK4 40 ng; hippocampus 2 hours after injection; listed as CU-CPT22
Procedure: In vivo testing was conducted by the administration of Pam3CSK4 and CU-CPTP22. CU-CPT22 (5 ng or 50 ng), suspended in 5 μl sterile saline or vehicle, was co-administered with the TLR2 agonist Pam3CSK4 (40 ng/4 μl) to the animal via the cisterna magna (ICM) with a 1 μl air bubble separating the two reagents. Two hours after injection, the animal's hippocampus was collected for pro-inflammatory mRNA analysis using real time RT-PCR procedures. […] (N=8 for each group).

T2 sequence (Q9QUN7 25-784): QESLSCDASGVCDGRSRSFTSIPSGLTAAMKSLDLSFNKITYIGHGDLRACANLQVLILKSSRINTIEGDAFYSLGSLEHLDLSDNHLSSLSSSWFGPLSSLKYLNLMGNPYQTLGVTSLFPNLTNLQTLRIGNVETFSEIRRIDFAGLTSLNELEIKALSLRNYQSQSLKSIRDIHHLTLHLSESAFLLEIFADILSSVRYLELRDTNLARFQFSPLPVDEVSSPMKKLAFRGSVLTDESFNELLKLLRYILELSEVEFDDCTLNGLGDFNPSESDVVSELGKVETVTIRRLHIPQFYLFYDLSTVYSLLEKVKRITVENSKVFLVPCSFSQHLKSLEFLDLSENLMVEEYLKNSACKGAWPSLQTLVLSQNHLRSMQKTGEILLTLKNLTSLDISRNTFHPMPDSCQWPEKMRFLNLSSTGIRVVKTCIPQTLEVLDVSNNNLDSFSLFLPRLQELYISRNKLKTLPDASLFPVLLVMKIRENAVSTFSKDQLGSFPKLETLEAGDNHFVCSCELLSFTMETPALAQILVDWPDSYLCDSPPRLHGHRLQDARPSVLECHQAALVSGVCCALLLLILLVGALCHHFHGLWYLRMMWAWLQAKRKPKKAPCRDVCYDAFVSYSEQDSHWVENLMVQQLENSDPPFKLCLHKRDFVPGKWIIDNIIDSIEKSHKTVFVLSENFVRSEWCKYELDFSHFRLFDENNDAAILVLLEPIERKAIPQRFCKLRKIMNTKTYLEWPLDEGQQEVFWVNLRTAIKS
T2 sequence (Q9EPW9 28-795): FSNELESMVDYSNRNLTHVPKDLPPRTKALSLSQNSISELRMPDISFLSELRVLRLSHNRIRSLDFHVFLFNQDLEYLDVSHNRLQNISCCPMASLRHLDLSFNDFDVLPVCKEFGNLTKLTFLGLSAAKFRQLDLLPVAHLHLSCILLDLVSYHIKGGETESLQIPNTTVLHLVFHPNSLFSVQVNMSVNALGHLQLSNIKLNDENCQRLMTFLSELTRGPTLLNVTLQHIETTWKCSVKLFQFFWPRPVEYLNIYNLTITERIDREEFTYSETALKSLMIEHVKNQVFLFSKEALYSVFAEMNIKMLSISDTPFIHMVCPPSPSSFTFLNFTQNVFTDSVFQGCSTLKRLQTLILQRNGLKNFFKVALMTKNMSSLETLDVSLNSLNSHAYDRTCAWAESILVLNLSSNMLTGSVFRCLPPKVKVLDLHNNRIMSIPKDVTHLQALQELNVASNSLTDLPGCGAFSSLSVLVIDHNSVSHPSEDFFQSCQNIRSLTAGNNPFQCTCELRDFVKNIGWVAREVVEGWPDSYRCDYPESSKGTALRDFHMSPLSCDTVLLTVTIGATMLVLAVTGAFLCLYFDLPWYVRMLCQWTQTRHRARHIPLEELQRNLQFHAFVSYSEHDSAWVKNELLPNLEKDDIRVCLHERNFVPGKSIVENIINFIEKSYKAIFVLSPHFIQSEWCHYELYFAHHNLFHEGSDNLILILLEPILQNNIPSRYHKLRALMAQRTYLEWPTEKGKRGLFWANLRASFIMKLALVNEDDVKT
T1 sequence (Q9EPQ1 26-795): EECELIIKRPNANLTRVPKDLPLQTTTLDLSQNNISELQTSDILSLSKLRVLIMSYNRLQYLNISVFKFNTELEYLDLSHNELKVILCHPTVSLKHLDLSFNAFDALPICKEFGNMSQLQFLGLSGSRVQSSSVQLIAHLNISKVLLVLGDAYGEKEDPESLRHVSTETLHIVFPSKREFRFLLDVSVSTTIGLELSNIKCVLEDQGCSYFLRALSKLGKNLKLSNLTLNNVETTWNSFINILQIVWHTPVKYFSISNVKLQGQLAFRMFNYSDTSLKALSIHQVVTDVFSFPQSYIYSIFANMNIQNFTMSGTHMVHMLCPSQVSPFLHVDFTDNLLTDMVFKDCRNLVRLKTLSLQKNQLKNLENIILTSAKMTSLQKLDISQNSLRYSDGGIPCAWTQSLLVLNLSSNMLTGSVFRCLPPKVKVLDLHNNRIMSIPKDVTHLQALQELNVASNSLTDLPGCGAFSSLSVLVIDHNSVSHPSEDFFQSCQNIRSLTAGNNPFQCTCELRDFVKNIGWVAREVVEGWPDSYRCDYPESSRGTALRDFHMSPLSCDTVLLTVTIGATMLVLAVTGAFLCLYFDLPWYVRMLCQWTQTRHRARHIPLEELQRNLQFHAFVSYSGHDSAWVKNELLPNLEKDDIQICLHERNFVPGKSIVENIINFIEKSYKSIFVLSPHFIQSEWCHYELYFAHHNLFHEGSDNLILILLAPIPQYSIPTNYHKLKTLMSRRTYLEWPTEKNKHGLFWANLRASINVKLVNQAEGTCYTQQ
T1 sequence (Q9QUN7 25-784): as the sequence (Q9QUN7 25-784) above

Compound	TLR1/2 inhibitory activity (in words, SAR and specificity) (TLR1/2)	TLR1/2 inhibitory activity (in words, SAR and specificity) (TLR1/2; listed as Compound 17)	IC50 (TLR1/2)	inhibition of TLR2/6 signaling (TLR2/6; 0.5 μM compound)	inhibition of TLR2/6 signaling (TLR2/6; 0.5 μM compound, listed as Compound 17)	inhibition of TLR3 signaling (TLR3; 0.5 μM compound)	inhibition of IL-1β [1]	IL-6 / M-6 mRNA expression (FIG. 10c) (pro-inflammatory mRNA)	TNF-α mRNA expression (FIG. 10b) (pro-inflammatory mRNA)	mRNA expression (FIG. 10a) (pro-inflammatory mRNA)	inhibition of TLR2/6 signaling (TLR2/6; 3 μM compound)	inhibition of TLR3 signaling (TLR3; 3 μM compound)
CCCCCCOC(=O)c1cc(O)c(=O)c2c(O)c(O)c(OC)cc2c1 [compound 17, Hexyl 3,4,6-trihydroxy-2-methoxy-5-oxo-5H-benzo[7]annulene-8-carboxylate]	highest inhibitory activity	inhibit TLR1/2 signaling	580 ± 90 nM	no significant inhibition	without affecting other TLRs	without affecting other TLRs	Dose-dependent inhibition	strongly inhibits; also recorded: strong inhibition	strongly inhibits; also recorded: strong inhibition	strongly inhibits; also recorded: strong inhibition	–	–
O=c1c(O)cccc2cc(O)c(O)c(O)c12 [NCI35676, purpurogallin, reference compound]	specifically inhibited TLR1/2 signaling	–	2450 ± 250 nM	–	–	–	–	–	–	–	no other homologous TLRs	no other homologous TLRs
